From ChEMBL document CHEMBL4706653, “Ultra-short lipopeptides against gram-positive bacteria while alleviating antimicrobial resistance” (Eur J Med Chem, 2021)
≈ marks a conversion by molar mass, not a printed value. Calls of active or inactive are those of the source. No cut-off for these calls is given here. Residues, ends and D or L forms follow the SMILES beside them. *: point of attachment. Myristoyl = CCCCCCCCCCCCCC(=O)*; Lauroyl = CCCCCCCCCCCC(=O)*

Tests used:
[1] = tested on: Staphylococcus aureus; assay: Antibiofilm activity against Staphylococcus aureus ATCC 25923 preformed biofilm assessed as preformed biofilm thickness at 64 uM after 24 hrs using LIVE/LEAD (SYTO-9/PI) staining by confocal laser scanning microscopy based 3D image analysis (reference value: 56 micrometer); assay type: functional
[2] = tested on: Staphylococcus epidermidis; assay: Antimicrobial activity against ciprofloxacin-resistant Staphylococcus epidermidis ATCC 12228 at 0.5 to 8 uM measured after 18 hrs in presence of ciprofloxacin by checkerboard assay; assay type: functional, organism-based; details: dose 0.5-8 µM
[3] = tested on: Staphylococcus aureus; assay: Antibiofilm activity against Staphylococcus aureus ATCC 25923 assessed as biofilm thickness at 8 uM after 24 hrs using LIVE/LEAD (SYTO-9/PI) staining by confocal laser scanning microscopy based 3D image analysis (reference value: 55 micrometer); assay type: functional
[4] = tested on: Staphylococcus aureus; assay: Antimicrobial activity against ciprofloxacin-resistant Staphylococcus aureus ATCC 25923 at 0.5 to 8 uM measured after 18 hrs in presence of EtBr by checkerboard assay; assay type: functional, organism-based; details: dose 0.5-8 µM
[5] = tested on: Staphylococcus aureus; assay: Antibiofilm activity against Staphylococcus aureus ATCC 25923 assessed as biofilm thickness at 4 uM after 24 hrs using LIVE/LEAD (SYTO-9/PI) staining by confocal laser scanning microscopy based 3D image analysis (reference value: 55 micrometer); assay type: functional
[6] = tested on: Staphylococcus aureus; assay: Potentiation of ciprofloxacin-induced antimicrobial activity against ciprofloxacin-resistant Staphylococcus aureus ATCC 25923 at 1 uM after 18 hrs by broth microdilution method; assay type: functional, organism-based
[7] = tested on: Staphylococcus aureus; assay: Ratio of MIC for antimicrobial activity against Staphylococcus aureus ATCC 25923 in presence of 10% serum to MIC for antimicrobial activity against Staphylococcus aureus ATCC 25923 in absence of serum; assay type: functional
[8] = tested on: Staphylococcus aureus; assay: Potentiation of ciprofloxacin-induced antimicrobial activity against Staphylococcus aureus ATCC 25923 at 0.5 times MIC after 15 passages by broth microdilution method; assay type: functional, organism-based
[9] = tested on: Staphylococcus epidermidis; assay: Potentiation of ciprofloxacin-induced antimicrobial activity against Staphylococcus epidermidis ATCC 12228 at 0.5 times MIC after 15 passages by broth microdilution method; assay type: functional, organism-based
[10] = Therapeutic index, ratio of MHC for mouse RBC to geometric mean of peptide MIC for Staphylococcus epidermidis ATCC 12228; assay type: toxicity; details: pooled result: one value given for 6 cell lines, strains, targets or settings, read-out: TI
[11] = tested on: Cell membrane; assay: Induction of membrane disruption in Staphylococcus aureus ATCC 25923 assessed as PI-positive cells at 4 times MIC measured after 2 hrs by propidium iodide staining based flow cytometry relative to control
[12] = tested on: Staphylococcus aureus; assay: Potentiation of ciprofloxacin-induced antimicrobial activity against ciprofloxacin-resistant Staphylococcus aureus ATCC 25923 assessed as ciprofloxacin MIC at 0.5 times MIC after 15 passages by broth microdilution method; assay type: functional
[13] = tested on: Cell membrane; assay: Induction of membrane disruption in Staphylococcus aureus ATCC 25923 assessed as appearance of rough membrane at 2 to 4 times MIC measured after 2 to 4 hrs by SEM analysis; assay type: subcellular; details: time 2-4 hrs
[14] = tested on: Staphylococcus epidermidis; assay: Antimicrobial activity against ciprofloxacin-resistant Staphylococcus epidermidis ATCC 12228 at 0.5 times MIC after 15 passages by broth microdilution method; assay type: functional, organism-based
[15] = tested on: Staphylococcus aureus; assay: Antimicrobial activity against Staphylococcus aureus ATCC 25923 after 18 hrs in presence of 2.5% serum by broth microdilution method; assay type: functional
[16] = tested on: Staphylococcus aureus; assay: Antimicrobial activity against Staphylococcus aureus ATCC 25923 after 18 hrs by broth microdilution method; assay type: functional
[17] = tested on: Staphylococcus aureus; assay: Potentiation of ciprofloxacin-induced antimicrobial activity against methicillin-resistant Staphylococcus aureus 75 assessed as change in ciprofloxacin MIC at 1 uM after 18 hrs by broth microdilution method relative to ciprofloxacin MIC; assay type: functional
[18] = tested on: Staphylococcus epidermidis; assay: Potentiation of ciprofloxacin-induced antimicrobial activity against ciprofloxacin-resistant Staphylococcus epidermidis ATCC 12228 at 1 uM after 18 hrs by broth microdilution method; assay type: functional, organism-based
[19] = tested on: Staphylococcus aureus; assay: Antibiofilm activity against Staphylococcus aureus ATCC 25923 preformed biofilm at 32 to 64 uM after 24 hrs by LIVE/DEAD (SYTO-9/PI) staining based confocal laser scanning microscopic analysis; assay type: functional, organism-based; details: dose 32-64 µM
[20] = tested on: Staphylococcus epidermidis; assay: Antimicrobial activity against Staphylococcus epidermidis ATCC 12228 at 0.5 times MIC after 15 passages by broth microdilution method; assay type: functional, organism-based
[21] = tested on: Staphylococcus epidermidis; assay: Potentiation of ciprofloxacin-induced antimicrobial activity against ciprofloxacin-resistant Staphylococcus epidermidis ATCC 12228 assessed as change in ciprofloxacin MIC at 2 uM after 18 hrs by broth microdilution method relative to ciprofloxacin MIC; assay type: functional
[22] = tested on: Staphylococcus aureus; assay: Antimicrobial activity against Staphylococcus aureus ATCC 29213 after 18 hrs by broth microdilution method; assay type: functional
[23] = tested on: Staphylococcus aureus; assay: Antimicrobial activity against Staphylococcus aureus ATCC 25923 after 18 hrs in presence of polymyxin B by checkerboard assay; assay type: functional, organism-based
[24] = tested on: Cell membrane; assay: Induction of membrane disruption in Staphylococcus aureus ATCC 25923 assessed as PI-positive cells at 2 times MIC measured after 2 hrs by propidium iodide staining based flow cytometry relative to control
[25] = tested on: Staphylococcus epidermidis; assay: Potentiation of ciprofloxacin-induced antimicrobial activity against ciprofloxacin-resistant Staphylococcus epidermidis ATCC 12228 assessed as ciprofloxacin MIC at 0.5 times MIC after 15 passages by broth microdilution method; assay type: functional
[26] = tested on: Staphylococcus aureus; assay: Antimicrobial activity against Staphylococcus aureus ATCC 25923 at 0.5 times MIC after 15 passages by broth microdilution method; assay type: functional, organism-based
[27] = tested on: Staphylococcus aureus; assay: Induction of nucleic acid leakage in Staphylococcus aureus ATCC 25923 at 4 times MIC; assay type: functional
[28] = tested on: Staphylococcus aureus; assay: Antimicrobial activity against ciprofloxacin-resistant Staphylococcus aureus ATCC 25923 after 18 hrs in presence of polymyxin B by checkerboard assay; assay type: functional, organism-based
[29] = tested on: Staphylococcus aureus; assay: Antimicrobial activity against Staphylococcus aureus ATCC 25923 after 18 hrs in presence of 10% serum by broth microdilution method; assay type: functional
[30] = tested on: Staphylococcus aureus; assay: Antimicrobial activity against methicillin-resistant Staphylococcus aureus 113 after 18 hrs by broth microdilution method; assay type: functional
[31] = tested on: Staphylococcus aureus; assay: Ratio of MIC for antimicrobial activity against Staphylococcus aureus ATCC 25923 in presence of 5% serum to MIC for antimicrobial activity against Staphylococcus aureus ATCC 25923 in absence of serum; assay type: functional
[32] = tested on: Staphylococcus aureus; assay: Antimicrobial activity against Staphylococcus aureus ATCC 25923 after 18 hrs in presence of 5% serum by broth microdilution method; assay type: functional
[33] = tested on: Staphylococcus aureus; assay: Antimicrobial activity against Staphylococcus aureus ATCC 25923 after 18 hrs in presence of NaCl by broth microdilution method; assay type: functional
[34] = tested on: Staphylococcus aureus; assay: Potentiation of ciprofloxacin-induced antimicrobial activity against ciprofloxacin-resistant Staphylococcus aureus ATCC 25923 assessed as change in ciprofloxacin MIC at 2 uM after 18 hrs by broth microdilution method relative to ciprofloxacin MIC; assay type: functional
[35] = tested on: Staphylococcus aureus; assay: Antimicrobial activity against ciprofloxacin-resistant Staphylococcus aureus ATCC 25923 at 0.5 to 8 uM measured after 18 hrs in presence of ciprofloxacin by checkerboard assay; assay type: functional, organism-based; details: dose 0.5-8 µM
[36] = tested on: Staphylococcus aureus; assay: Antimicrobial activity against Staphylococcus aureus ATCC 25923 after 18 hrs in presence of MgCl2 by broth microdilution method; assay type: functional
[37] = tested on: Staphylococcus aureus; assay: Antibiofilm activity against ciprofloxacin-resistant Staphylococcus aureus ATCC 25923 at 0.5 to 8 uM after 24 hrs in presence of ciprofloxacin by checkerboard assay; assay type: functional, organism-based; details: dose 0.5-8 µM

Row | Compound | Activity [1] [um] | Activity [2] | Activity [3] [um] | Activity [4] | Activity [5] [um] | Activity [6] | Ratio [7] | Activity [8] | Activity [9] | selectivity ratio [10] | Activity [11] | MIC [12] [µM] | Activity [13] | Activity [14] | MIC [15] [µM] | MIC [16] [µM] | fold change (FC) [17] | Activity [18] | Activity [19] | Activity [20] | other results
1 | CCCCCCCCCCCC(=O)N[C@@H](CCCNC(=N)N)C(=O)N[C@@H](CCCNC(=N)N)C(=O)N[C@@H](Cc1c[nH]c2ccccc12)C(N)=O (Lauroyl-Arg-Arg-Trp-NH2) | 40 | Active | 20 | Active | 24 | inactive | 8 | Active | Active | 34.9 | Active | 8 | Active | Active | 32 | 4 (≈ 2.79 µg/mL) | 2 | inactive | Active | Active | fold change (FC) [21]: 2; MIC [22]: 4 µM (≈ 2.79 µg/mL); Activity [23]: Active; Activity [24]: 44.3%; MIC [25]: 8 µM; Activity [26]: Active; Activity [27]: inactive; Activity [28]: Active; MIC [29]: 64 µM; MIC [30]: 2 µM (≈ 1.4 µg/mL); Ratio [31]: 8; MIC [32]: 64 µM; MIC [33]: 16 µM; fold change (FC) [34]: 2; Activity [35]: Active; MIC [36]: 8 µM; Activity [37]: Active
2 | CCCCCCCCCCCCCC(=O)N[C@@H](CCCNC(=N)N)C(=O)N[C@@H](Cc1c[nH]c2ccccc12)C(=O)N[C@@H](Cc1c[nH]c2ccccc12)C(N)=O (Myristoyl-Arg-Trp-Trp-NH2) | 24 | Active | 16 | Active | 30 | inactive | 2 | Active | Active | 56.9 | 88.9% | 8 | Active | Active | 8 | 8 (≈ 6.05 µg/mL) | 2 | inactive | Active | Active | fold change (FC) [21]: 2; MIC [22]: 8 µM (≈ 6.05 µg/mL); Activity [23]: Active; Activity [24]: 74.8%; MIC [25]: 8 µM; Activity [26]: Active; Activity [27]: inactive; Activity [28]: Active; MIC [29]: 16 µM; MIC [30]: 4 µM (≈ 3.02 µg/mL); Ratio [31]: 2; MIC [32]: 16 µM; MIC [33]: 8 µM; fold change (FC) [34]: 2; Activity [35]: Active; MIC [36]: 4 µM; Activity [37]: Active
